Data taken from a melting point compilation (Tetko et al.; mined from patent text by program, amines drawn as free bases though some values may be those of a salt).

Row | Structure (SMILES) | melting point [°C]
1 | O=[N+]([O-])c1ccc(Cl)c(NC(=S)NCCO)c1 | 158
2 | CCCOC(=O)c1cn(C(C)(C)C)c2ncc([N+](=O)[O-])cc12 | 116 to 120
3 | Cc1nnc(-c2ccc3occ(-c4ccncc4Cl)c3c2)o1 | 147 to 148
4 | CC(c1ccc(F)cc1)n1nc(-c2ccc(F)cc2)c(-c2ccc(S(C)(=O)=O)cc2)cc1=O (stereo not drawn) | 185 to 186
5 | CC(=O)NC(Cc1ccccc1)C(=O)Nc1c(C)cccc1C (stereo not drawn) | 217 to 218
6 | O=C(CCC(=O)N1CCC(c2ccc(Cl)cc2)CC1)c1ccc2c(c1)CCN(CC1CCCCC1)CC2 | 140 to 141
7 | CC(=NO)c1nc(N)nc(N)c1-c1ccc(Cl)cc1 | 256 to 259
8 | Cc1cc(C)c2c(=O)[nH]c(-c3cc(C)c(OCCN4CCCC4)c(C)c3)nc2c1 | 181 to 182
9 | CCn1cc(C(=O)O)c(=O)c2ccc(-n3cccc3)cc21 | 235 to 238
10 | CS(=O)(=O)NCCc1ccc2c(c1)C(=O)c1ccccc1CO2 | 104 to 106
11 | COc1nc2ccccc2nc1NC(=O)N1CCC(c2ccccc2)(c2ccccc2)CC1 | 202 to 204
12 | O=C(NCc1ccccc1)c1ccc(-c2ccc3nnn(Cc4ccc5ncccc5c4)c3n2)cc1F | 163 to 165
13 | CC(=O)OC(C)c1cc2c(s1)C(=O)c1ccsc1C2=O (stereo not drawn) | 174 to 176
14 | CC(=O)SCCNc1nc(-c2ccccc2)c2cc(Cl)ccc2n1 | 129
15 | CC(C)(C)OC(=O)NC(Cc1ccccc1)C(=O)NC1N=C(c2ccccc2)c2ccccc2NC1=O (mixture of isomers) | 143 to 153
16 | CCOC(=O)c1cnc2nc(S(=O)(=O)Cl)nn2c1C | 65 to 69
17 | CCCCCCCCN(CC(=O)NO)S(=O)(=O)c1ccc(C)cc1 | 89
18 | CNC(=O)c1ccc2[nH]ccc2c1 | 140 to 141
19 | CNC(=O)C1CC(=O)c2nc(C)n(C)c2C1 (stereo not drawn) | 194 to 196
20 | Nc1ncc(C#Cc2ccc(Cl)cc2)c(N2CCOCC2)n1 | 193 to 194
21 | CSc1nnc(C(F)F)s1 | 23
22 | CS(=O)(=O)Nc1ccc(N)cc1CC1CCCCC1 | 160 to 162
23 | Cc1ccc(C=CC(=O)NNC(=O)C=Cc2ccc(C)cc2)cc1 | 307
24 | C=C(C)COc1ccc(C=CC(=O)OCCCC)cc1 | 32 to 33
25 | Cc1sc(N)c(C(=O)c2cccs2)c1C | 117 to 118

Row | Structure (SMILES) | melting point [°C]
26 | CCOC(=O)c1cnc2ccn(-c3ccccc3)n2c1=O | 187 to 190
27 | CN(CCO)C(=O)c1c(-c2ccc(C(C)(C)C)cc2)n(C)n(-c2ccc(C#N)cc2)c1=O | 210 to 213
28 | Nc1ccc(NCCc2ccccc2)cc1 | 247
29 | Cc1c(C)c2c(c(C)c1NC(=O)CC(C)(C)C)OCC2c1ccc(C(C)C)cc1 (stereo not drawn) | 214 to 215
30 | COc1ccc(Nc2nc(Cl)cc(NC3CCCCCC3)n2)cc1Cl | 74 to 76
31 | O=[N+]([O-])c1cnccc1NCc1ccc(CO)o1 | 135
32 | O=C(O)CC1CCc2[nH]c3ccccc3c2C1 (stereo not drawn) | 209 to 210
33 | NNC(=O)c1sc2cnccc2c1Oc1ccc(C(F)(F)F)cc1 | 146 to 147
34 | CCCc1nc2c(N)nc3cc(OCCCO)ccc3c2s1 | 157 to 160
35 | COC(CCCNC(=O)c1ccc2c(c1)C(=O)N(CCCC(OC)OC)C2=O)OC | 102
36 | CCC1CCC(C)N(C(=O)CN(C(=O)CNC(=O)Nc2cccc(C)c2)c2ccccc2)C1 (stereo not drawn) | 158
37 | CCCc1cccc(N2CC(=O)NC(=O)N2)c1 | 188 to 190
38 | CCOC(=O)C(C)(C)Oc1ccc(CCNC(=O)C=Cc2ccccc2Cl)cc1 | 76
39 | N=C(N)c1nc2c(s1)CCc1c-2sc2nc3ccccc3n12 | > 300
40 | O=C1Cn2ccnc2-c2c(Br)cccc2N1 | 234 to 235
41 | O=c1[nH]c2cc(Cl)c(S(=O)CCN3CCC(Cc4ccccc4)CC3)cc2o1 (stereo not drawn) | 190 to 192
42 | N#Cc1cc(-c2cc(C(F)F)c3c(-c4cccnc4)nn(C4CCCCO4)c3n2)ccc1N (stereo not drawn) | 140
43 | COc1cc(-c2nc3ccccc3n2Cc2ccccc2F)cc(OC)c1OC | 154
44 | CCC1c2ccc(C#N)n2-c2ccc(F)cc2N1S(=O)(=O)c1ccc(OC)c(C)c1 (stereo not drawn) | 196 to 199
45 | COC(=O)NN=Cc1nc(-c2cccc(C(F)(F)F)c2)[nH]c1C | 251 to 252
46 | CCC(CC)n1nnc2c(Nc3ccc(C(C)C)cc3Br)nc(C)cc21 | 144 to 145
47 | Cn1nc(N)nc1NCCCOc1ccc(CN2CCCCC2)cc1 | 104 to 105
48 | Cc1ccc2ccc(C(=O)NCc3ccc(Cl)cc3)c(O)c2n1 | 95 to 98
49 | COC(=O)c1ccc(Cc2cccc3ccc(N)cc23)c(OC)c1 | 138 to 140
50 | CC(C)c1ccc(S(=O)(=O)n2c(CCC(=O)O)cc3cc(Cl)ccc32)cc1 | 150 to 154

Row | Structure (SMILES) | melting point [°C]
51 | CC(C)N(C(=O)n1oc(=O)[nH]c1=O)c1ccccc1 | 116 to 117
52 | CCOc1ccc(-c2ccc(C#CC3(O)CN4CCC3CC4)cc2)cc1 (stereo not drawn) | 255 to 256
53 | CCCc1c(C(=O)C(C)C)c2ccc(C(=O)OC)cc2n1Cc1ccccc1C | 99 to 102
54 | CCC1(CC)c2cc(-c3nc4ccccc4s3)ccc2-c2ccc(N(c3ccc(Oc4ccc(N)cc4)cc3)c3ccc(Oc4ccc(N)cc4)cc3)cc21 | 192 to 194
55 | CCOC(=O)c1nn(-c2ccccc2)c2c1Cc1ccccc1-2 | 110 to 112
56 | Cc1ncc(C#N)c(Cl)c1I | 120 to 122
57 | CCOCc1nc2c(N)nc3cc(Br)cnc3c2n1CC(C)(C)F | 221 to 222
58 | Nc1ccn(C2CCCCC2)c(=O)n1 | 213 to 231
59 | CCCN/C(C)=C(/C#N)C(N)=S | 149 to 151
60 | CSc1cc2c(cc1C(F)(F)F)N(C(=O)Nc1cccc(C(=O)NC3CCN(Cc4ccccc4)C3)c1)CC2 (stereo not drawn) | 174 to 175
61 | CCCCc1ccc(NC(N)=S)cc1 | 123 to 125
62 | CCCN(CCC)CC1CCCCN1CCNC(=O)N1c2ccccc2C(=O)Nc2cccc(Cl)c21 (stereo not drawn) | 71 to 78
63 | CC(C)n1c(=O)[nH]c2cc(-c3ncc(C(F)(F)F)cc3Cl)ccc21 | 192 to 193
64 | O=C(Nc1cccnc1)c1nnc2ccccc2c1O | 326 to 328
65 | CS(=O)(=O)c1ccc(-c2ccc(C=C(Cl)Cl)s2)cc1 | 143 to 145
66 | CC(=O)C1=C(CS(=O)c2ccccc2)CC2C3CCC4=CC(=O)CCC4(C)C3=CCC12C (stereo not drawn) | 160 to 163
67 | C=CCON(C1=NCCN1)c1c(F)cccc1Br | 141
68 | CC(C)c1nc(-c2ccc(F)cc2)c(C=O)c(C(C)C)c1CO | 147
69 | COc1ccc2ccccc2c1C1C(CC(=O)O)CC(=O)N1c1ccccc1 (stereo not drawn) | 198 to 203
70 | CN1CCc2nc(C(=O)N[C@@H]3C[C@@H](C(=O)O)CC[C@H]3NC(=O)c3cc4cc(Cl)ccc4[nH]3)sc2C1 | 234 to 236
71 | O=[N+]([O-])c1ccc(/C=C/c2c(F)cccc2F)cc1 | 136 to 137
72 | CCOC(=S)c1[nH]c(C)nc1C(C)(C)O | 128 to 129
73 | COc1cc2c(cc1Nc1ncc(Cl)c(Nc3ccc(N(C)C)cc3OC)n1)CCN(CCN1CCOCC1)CC2 | 115
